Experimental data: patent US20080200403A1, “9A-Carbamoyl and Thiocarbamoyl Azalides with Anti-Inflammatory Activity” (GLAXOSMITHKLINE, priority 2005, published 2008)

What was measured:
Type in all cases: cell-based
Details in all cases: PBL
[1] = tested on: IL-6; assay: Inhibition of IL-6 production by stimulated human peripheral blood leukocytes in vitro
Procedure: (§1) Test substances used in in vitro experiments were dissolved in dimethyl sulfoxide (DMSO) (Kemika, Croatia) at concentrations of 50 mM and 10 mM, and were further diluted to final concentrations of 50 μM and 10 μM in 1 mL Dulbecco's modified Eagle medium (DMEM) supplemented with 1% heat inactivated fetal bovine serum (FBS), 1% L-glutamine, 50 U/ml penicillin, 50 μg/ml streptomycin and 2.5 μg/mL Fungizone (amphotericin B). Media and all media supplements were purchased from Gibco, Australia, except the FBS was purchased from Sigma, USA.
(§2) Peripheral blood leukocytes (PBL) were obtained from venous blood of healthy volunteers by sedimentation on 2% dextran T-500 (Amersham Biosciences, USA) and subsequent centrifugations of leukocyte rich plasma.
(§3) Peripheral blood leukocytes (PBL), isolated as described above, were seeded in a 48-well plate at a concentration of 3 to 5×10^6 cell per well in culture medium consisting of RPMI 1640 medium (Institute of Immunology, Croatia) supplemented with 10% heat-inactivated fetal calf serum (FCS, Biowhittaker, USA), 100 U/ml penicillin (Gibco, Australia), 100 μg/ml streptomycin (Gibco, Australia) and 2 mM L-glutamine (Gibco, Australia), and preincubated with the test compounds for 2 h at 37° C., in an atmosphere of 5% CO2, and 90% humidity. Then, stimuli (Sigma, USA) were added to a final concentration of 2 μg/mL lipopolysaccharide (LPS), 1 μg/mL phorbol 12-myristate 13-acetate (PMA) or 120 μg/mL zymosan. Samples were incubated overnight under conditions described above. At the end of incubation, the supernatants were transferred to eppendorf tubes and centrifuged for 10 min at 1500×g. Concentrations of human TNF-α, IL-1β, IL-6 and IL-8 were determined in cell supernatants by sandwich ELISA, using capture and detection antibodies (R&D Systems, Minneapolis, Minn.) according to the manufacturer's recommendations.
(§4) Inhibition (as percentage) was calculated using the following formula: % inhibition=(1−concentration of cytokines in sample/concentration of cytokines in positive control)×100. The positive control refers to stimulated samples, not treated with substances.

[2] = tested on: TNF-α; assay: Inhibition of TNF-α production by stimulated human peripheral blood leukocytes in vitro
Procedure: as §1, §2, §3, §4

[3] = tested on: IL-1α; assay: Inhibition of IL-1 production by stimulated human peripheral blood leukocytes in vitro
[4] = tested on: IL-8; assay: Inhibition of IL-8 production by stimulated human peripheral blood leukocytes in vitro
Procedure: as §1, §2, §3, §4

[5] = zymosan stimulated, compound 10 μM
[6] = zymosan stimulated, compound 50 μM

| Compound | Percentage of inhibition of IL-6 production ([1]; LPS stimulated, compound 10 μM) | Percentage of inhibition of IL-6 production ([1]; LPS stimulated, compound 50 μM) | Percentage of inhibition of IL-6 production ([1]; PMA stimulated, compound 10 μM) | Percentage of inhibition of IL-6 production ([1]; PMA stimulated, compound 50 μM) | Percentage of inhibition of IL-6 production [1, 5] | Percentage of inhibition of IL-6 production [1, 6] | Percentage of inhibition of TNF-α production ([2]; LPS stimulated, compound 10 μM) | Percentage of inhibition of TNF-α production ([2]; LPS stimulated, compound 50 μM) | Percentage of inhibition of TNF-α production ([2]; PMA stimulated, compound 10 μM) | Percentage of inhibition of TNF-α production ([2]; PMA stimulated, compound 50 μM) | Percentage of inhibition of TNF-α production [2, 5] | Percentage of inhibition of TNF-α production [2, 6] | Percentage of inhibition of IL-1α production ([3]; LPS stimulated, compound 10 μM) | Percentage of inhibition of IL-1α production ([3]; LPS stimulated, compound 50 μM) | Percentage of inhibition of IL-1α production [3, 5] | Percentage of inhibition of IL-1α production [3, 6] | Percentage of inhibition of IL-8 production ([4]; LPS stimulated, compound 10 μM) | Percentage of inhibition of IL-8 production ([4]; LPS stimulated, compound 50 μM) | Percentage of inhibition of IL-8 production [4, 5] | Percentage of inhibition of IL-8 production [4, 6] | further results |
| --- | --- | --- | --- | --- | --- | --- | --- | --- | --- | --- | --- | --- | --- | --- | --- | --- | --- | --- | --- | --- | --- |
| CC[C@H]1OC(=O)[C@H](C)[C@@H](O[C@H]2C[C@@](C)(OC)[C@@H](O)[C@H](C)O2)[C@H](C)[C@@H](O[C@@H]2O[C@H](C)C[C@H](N(C)C)[C@H]2O)[C@](C)(O)C[C@@H](C)CN(C(=S)Nc2ccc(Br)cc2)[C@H](C)[C@@H](O)[C@]1(C)O [Compound 7] | 54% | 100% | 65% | 90% | 73% | 100% | 0% | 100% | 95% | 100% | 69% | 100% | 71% | 89% | 96% | 83% | 39% | 100% | 61% | 99% | Percentage of inhibition of IL-1α production ([3]; PMA stimulated, compound 10 μM): 0%; Percentage of inhibition of IL-1α production ([3]; PMA stimulated, compound 50 μM): 79%; Percentage of inhibition of IL-8 production ([4]; PMA stimulated, compound 10 μM): 40%; Percentage of inhibition of IL-8 production ([4]; PMA stimulated, compound 50 μM): 100% |
| CC[C@H]1OC(=O)[C@H](C)C2O[C@@](C)(C[C@@H](C)CN(C(=O)NCc3ccccc3)[C@H](C)[C@@H](O)[C@]1(C)O)[C@H](O[C@@H]1O[C@H](C)C[C@H](N(C)C)[C@H]1O)[C@H]2C [Compound 11] | 0% | 66% | – | – | 72% | 100% | 0% | 51% | – | – | 13% | 88% | 48% | 38% | 85% | 77% | 0% | 52% | 23% | 75% | – |
| CC[C@H]1OC(=O)[C@H](C)[C@@H](O[C@H]2C[C@@](C)(OC)[C@@H](O)[C@H](C)O2)[C@H](C)[C@@H](O[C@@H]2O[C@H](C)C[C@H](N(C)C)[C@H]2O)[C@](C)(O)C[C@@H](C)CN(C(=O)Nc2ccc(Cl)c(C(F)(F)F)c2)[C@H](C)[C@@H](O)[C@]1(C)O [Compound 10] | 63% | 100% | 40% | 100% | 76% | 100% | 32% | 99% | 0% | 100% | 69% | 99% | 0% | 100% | 0% | 96% | 55% | 93% | 82% | 97% | Percentage of inhibition of IL-1α production ([3]; PMA stimulated, compound 10 μM): 0%; Percentage of inhibition of IL-1α production ([3]; PMA stimulated, compound 50 μM): 100%; Percentage of inhibition of IL-8 production ([4]; PMA stimulated, compound 10 μM): 75%; Percentage of inhibition of IL-8 production ([4]; PMA stimulated, compound 50 μM): 100% |
